Data: PubChem BioAssay AID540268 (Broad Institute, 2011)
Active and inactive are the calls of the source. How the calls were made is not given here.

Test: reduced viability of parasite-Hsp90 expressing yeast – ATP luminescence, 48 h, cherry-picked samples, anti-malarial Hsp90 inhibitor project, dose response (AID 540268);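 on activity change, negative = inhibition: 0% = neutral control wells and -100% = positive control wells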
Details: yeast expressing the parasite Hsp90, ATP luminescence

Question: With CCCCN(CCCC)CCC(O)c1cc2c(Cl)cc(Cl)cc2c2cc(C(F)(F)F)ccc12 (centres undefined) as the compound, how does the AC50 read?
Answer: The AC50 was 7.42 µM.

Question: With COc1ccc(C2=CC3=C(Br)C(=O)C(C)(OC(=O)c4ccco4)C(=O)C3=CO2)cc1 (centres undefined) as the compound, how does the AC50 read?
Answer: Its AC50 is 3 µM.

Question: For CCCCC(=O)NC(c1cccs1)c1cc(Cl)c2cccnc2c1O (centres undefined), which AC50 is on record?
Answer: The AC50 was 4.18 µM.

Question: With O=C1NC(=S)S/C1=C\C=C\c1ccc([N+](=O)[O-])o1 as the compound, how does the AC50 read?
Answer: Its AC50 is 2.45 µM.

Question: With Oc1cccc2ccc(/C=C/c3ccccc3Cl)nc12 as the compound, how does the AC50 read?
Answer: The AC50 was 16.3 µM.

Question: With COc1ccc([N+](=O)[O-])c(S(=O)(=O)c2ccc(Cl)cc2)n1 as the compound, how does the AC50 read?
Answer: The AC50 was 1.27 µM.

Question: Which AC50 does the source give for CCOC(=O)C1=C(CC)Nc2ccccc2N=C1NC(=O)Nc1ccc(Cl)c(Cl)c1 here?
Answer: The AC50 was 1.43 µM.

Question: With CC(C)(C)c1cc(-c2nc(N)nc(N)n2)c(O)c(C(C)(C)C)c1 as the compound, how does the AC50 read?
Answer: Its AC50 is 15.1 µM.

Question: Which AC50 does the source give for O=C1C=CC(=O)N1c1cccc(-c2ccccc2)c1 here?
Answer: The AC50 was < 0.195 µM.

Question: For Clc1nssc1=Nc1ccc(Br)cc1, which AC50 is on record?
Answer: Its AC50 is 3.4 µM.

Question: Which AC50 does the source give for O=C(/C=C/c1cccc([N+](=O)[O-])c1)c1ccco1 here?
Answer: The AC50 was 4.27 µM.

Question: Which AC50 does the source give for Cc1ccc(C(=O)Sc2cccccc2=O)cc1 here?
Answer: Its AC50 is 6.77 µM.

Question: With CCCC(=O)NC(c1ccco1)c1cc(Cl)c2cccnc2c1O (centres undefined) as the compound, how does the AC50 read?
Answer: Its AC50 is 4.36 µM.

Question: Which AC50 does the source give for O=C(NCc1ccc2c(c1)OCO2)c1ccc(Br)cc1 here?
Answer: The AC50 was 4.46 µM.

Question: Which AC50 does the source give for Oc1ccc(Cl)cc1Cc1cc(Cl)ccc1O here?
Answer: Its AC50 is 5.41 µM.

Question: For C=CCn1c(O)c(N=Nc2ccccc2O)c2ccccc21, which AC50 is on record?
Answer: The AC50 was 8.15 µM.

Question: For c1ccc(-c2c(-c3ccccc3)n(Cc3ccco3)c3ncnc(NCCCn4ccnc4)c23)cc1, which AC50 is on record?
Answer: The AC50 was 1.83 µM.

Question: For O=C(Nc1ccc(Cl)cc1Cl)c1cccc(N2C(=O)C=CC2=O)c1, which AC50 is on record?
Answer: Its AC50 is < 0.195 µM.

Question: With CCCCCCCCCCCCCCCC[N+](C)(C)CCl as the compound, how does the AC50 read?
Answer: The AC50 was 4.3 µM.

Question: For CCN1/C(=C/c2ccc3cc(C)ccc3[n+]2CC)Sc2cc(C)ccc21, which AC50 is on record?
Answer: Its AC50 is 5.54 µM.

Question: For Nc1ncnc2c1ncn2C1OC(COP(=O)(O)O)C(O)C1O (centres undefined), which AC50 is on record?
Answer: Its AC50 is 2.27 µM.

Question: With O=c1c2ccccc2sn1-c1ccccc1 as the compound, how does the AC50 read?
Answer: The AC50 was 9.19 µM.

Question: With CC1=NN(c2nc3ccccc3[nH]2)C(=O)/C1=C/N(C)C as the compound, how does the AC50 read?
Answer: Its AC50 is 2.23 µM.

Question: For CCOc1ccccc1N1CCN(C(=O)c2cccc(-c3ccc(O)cc3)c2)CC1, which AC50 is on record?
Answer: The AC50 was 5.08 µM.

Question: With O=C(Nc1nc(-c2ccccn2)cs1)C1COc2ccccc2O1 (centres undefined) as the compound, how does the AC50 read?
Answer: Its AC50 is 8.85 µM.

Question: Which AC50 does the source give for COc1ccc(N2CCN(c3c(S(=O)(=O)c4ccccc4)cnc4ccc(OC)cc34)CC2)cc1 here?
Answer: The AC50 was 3.9 µM.

Question: Which AC50 does the source give for Cc1ccc(C(C[N+](=O)[O-])c2c(N)n(C)c(=O)n(C)c2=O)cc1 (centres undefined) here?
Answer: Its AC50 is 3.33 µM.

Question: With O=C(C#Cc1cccc([N+](=O)[O-])c1)c1ccccc1 as the compound, how does the AC50 read?
Answer: The AC50 was 0.36 µM.

Question: With CC1=NNC(=O)/C1=C\c1cn(-c2ccccc2)nc1-c1cccs1 as the compound, how does the AC50 read?
Answer: The AC50 was 4.87 µM.

Question: With CN(C)CC1CC/C(=C\c2ccc(O)cc2)C1=O (centres undefined) as the compound, how does the AC50 read?
Answer: Its AC50 is 5.54 µM.

Question: Which AC50 does the source give for Cc1ccc(/C=C/C(=O)c2ccccc(=O)c2O)cc1C here?
Answer: Its AC50 is 8.01 µM.

Question: Which AC50 does the source give for O=C(/C=C/c1cccc(Cl)c1)c1ccc([N+](=O)[O-])o1 here?
Answer: Its AC50 is 0.84 µM.

Question: With O=C(NCCCSc1ccccc1)c1cc(Br)ccc1O as the compound, how does the AC50 read?
Answer: Its AC50 is 7.37 µM.

Question: Which AC50 does the source give for CC1CCN(C(CC(=O)c2ccccc2)C(=O)c2ccccc2)CC1 (centres undefined) here?
Answer: The AC50 was 3.28 µM.

Question: Which AC50 does the source give for COC(=O)C1=C(C(=O)OC)SC2(S1)C(C(=O)OC)=C(C(=O)OC)Sc1c2ssc1=O here?
Answer: Its AC50 is 8.87 µM.

Question: Which AC50 does the source give for O=C(OCC(=O)C12CC3CC(CC(C3)C1)C2)c1ccc(O)cc1O here?
Answer: Its AC50 is 15.6 µM.

Question: For O=C(/C=C/c1ccnc2ccccc12)c1cccs1, which AC50 is on record?
Answer: Its AC50 is 4.64 µM.

Question: For O=C1/C(=C\c2ccc(O)c(O)c2)SC(=S)N1Cc1ccccc1, which AC50 is on record?
Answer: The AC50 was 4.26 µM.

Question: Which AC50 does the source give for CN1C(=O)C(N=Nc2ccc([N+](=O)[O-])cc2)SC1=S (centres undefined) here?
Answer: Its AC50 is 3.87 µM.

Question: Which AC50 does the source give for CCOC(=O)/C=C/C(=O)Nc1cccc([N+](=O)[O-])c1 here?
Answer: The AC50 was 3.5 µM.

Question: Which AC50 does the source give for O=C(Nc1cc(Cl)ccc1-n1cncn1)c1ccc([N+](=O)[O-])s1 here?
Answer: Its AC50 is 4.2 µM.

Question: Which AC50 does the source give for Cc1ccc(N=N/C(=C\O)C(=O)c2ccc(Cl)cc2)cc1 here?
Answer: The AC50 was 8.29 µM.

Question: With O=C(Nc1ccccc1)Oc1cccc2cccnc12 as the compound, how does the AC50 read?
Answer: Its AC50 is 2.12 µM.

Question: With O=C1S/C(=C\c2ccc(N3CCOCC3)o2)C(=O)N1Cc1c(F)cccc1Cl as the compound, how does the AC50 read?
Answer: Its AC50 is 11.1 µM.

Question: For CC(C)c1c(O)ccc2c1CC[C@H]1C(C)(C)CCC[C@]21C, which AC50 is on record?
Answer: The AC50 was 2.86 µM.

Question: With c1ccc(-c2cccc(-c3ccccn3)n2)nc1 as the compound, how does the AC50 read?
Answer: Its AC50 is 1.03 µM.

Question: Which AC50 does the source give for O=C(Nc1ccccc1)c1nnsc1S(=O)(=O)c1ccc(Cl)cc1 here?
Answer: Its AC50 is 0.435 µM.

Question: Which AC50 does the source give for CC(C)(C)c1nn(-c2ccccc2)c2[nH]c(=O)c(C=O)cc12 here?
Answer: Its AC50 is 1.31 µM.

Question: Which AC50 does the source give for CN(C)c1ccc(C=c2c3ccccc3n3c2cc(-c2ccccc2)[n+]3C)cc1 here?
Answer: Its AC50 is 4.33 µM.

Question: Which AC50 does the source give for CN(C)c1ccc(/C=C/c2ccc3c4ccccc4ccc3[n+]2-c2ccccc2)cc1 here?
Answer: The AC50 was 3.47 µM.

Question: For O=c1c(Br)ccc(Br)cc1Br, which AC50 is on record?
Answer: Its AC50 is 0.38 µM.

Question: Which AC50 does the source give for Oc1ccc(-c2nc3ccc4ccccc4c3c3c2CCC3)cc1O here?
Answer: Its AC50 is 8.29 µM.

Question: With Oc1c(C(Nc2nccs2)c2ccc(C(F)(F)F)cc2)ccc2cccnc12 (centres undefined) as the compound, how does the AC50 read?
Answer: The AC50 was 2.49 µM.

Question: For CC(=O)NC(c1ccc(C)cc1)c1cc(Cl)c2cccnc2c1O (centres undefined), which AC50 is on record?
Answer: Its AC50 is 4.09 µM.

Question: Which AC50 does the source give for Oc1ccc(/C=C/c2ccc3cccc(O)c3n2)cc1Br here?
Answer: Its AC50 is 4.26 µM.

Question: With O=C(Nc1ccccc1)c1nnsc1S(=O)c1ccc(Cl)cc1 (centres undefined) as the compound, how does the AC50 read?
Answer: Its AC50 is < 0.195 µM.

Same assay, conditions: yeast expressing the parasite Hsp90, ATP luminescence, at 26 µM (top of the series)

Question: Which activity change, negative = inhibition does the source give for O=C(/C(=C\c1ccccc1)c1nc2ccccc2[nH]1)c1ccc(Cl)cc1 here?
Answer: The activity change, negative = inhibition was -31.8% (inactive).

Question: Which activity change, negative = inhibition does the source give for Cc1ccc2nc(-c3ccc(NS(=O)(=O)c4ccc(F)cc4)cc3)sc2c1 here?
Answer: Its activity change, negative = inhibition is 144% (inactive).

Question: With COc1ccc(C(=O)Nc2cc(C(=O)c3ccccc3)c(C)oc2=O)cc1 as the compound, how does the activity change, negative = inhibition read?
Answer: Its activity change, negative = inhibition is 36.8% (inactive).
